{
  "source": "patent US20110251213A1",
  "about": "“Cosmetic Use of 1-Aroyl-N-(2-oxo-3-piperidinyl)-2-Piperazine Carbomamides and Related Compounds” (Avon Products, Inc., priority 2008, published 2011)",
  "key": {"Desmoglein 1": {"test_system": "Desmoglein 1", "conditions": "keratinocytes", "description": "Normal human keratinocytes were cultured in 96 well tissue culture treated plates in Epilife medium with growth supplements (Cascade Biologics Inc.). Cells were treated with test material or a dimethylsulfoxide vehicle control diluted in growth medium for 24 hours in a humidified 37° C. incubator with 10% CO2. After incubation, growth medium from each plate was removed and 100 μl of lysis buffer was added to each of the wells and placed in the humidified 37° C. incubator with 10% CO2 for 30 minutes. At the end of the incubation period, the cells were collected in freezer plates and placed in a −80° C. freezer, until analysis. Changes in mRNA for Desmoglein 3 (DSG3) after treatment were analysed using Panomics Quantigene multiplex assay that employs branched DNA technology."}, "procollagen 1": {"test_system": "procollagen 1", "conditions": "human dermal fibroblasts, 5 μg/ml, 48 hours", "description": "Human dermal fibroblasts (Cascade Biologics) were cultured in 96-well tissue culture plates in growth medium (DMEM, 5% FBS, 1% L-Glut, and 1% antibiotics) and incubated for 24 hours at 37° C. […] Procollagen 1 levels were assayed using an ELISA kit from Takara (Procollagen Type-1 C-Peptide EIA Kit, Takara Bio Inc.) as per manufacturer's instructions."}, "Dermatopontin": {"test_system": "Dermatopontin", "conditions": "fibroblasts, 24 hours, p<0.05", "description": "Normal human dermal fibroblasts were cultured in 96 well tissue culture treated plates, containing appropriate culture medium. Cells were treated with 1-aroyl-N-(2-oxo-3-piperidinyl)-2-piperazine carboxamide test material, diluted in growth medium, for 24 hours in a humidified 37° C. incubator with 10% CO2. After incubation, growth medium from each plate was removed and 100 μl of lysis buffer was added to the wells and placed in 37° C. incubator with10% CO2 for 30 minutes. At the end of incubation, the cells were collected in freezer plates and placed in −80° C. freezer, until analysis. Changes in mRNA for Dermatopontin after treatment were analysed using Panomics Quantigene multiplex assay that employs a branched DNA technology."}},
  "note": "Read-outs that look alike come from different tables or passages of the source.",
  "data": [
    {"substance": "1-aroyl-N-(2-oxo-3-piperidinyl)-2-piperazine carboxamide", "values": [
      {"measurement": "increase in Desmoglein 1 expression", "setting": "Desmoglein 1; 0.00005% of the test material, 24 hours", "value": "did not show a statistically significant increase"},
      {"measurement": "increase in Desmoglein 1 expression", "setting": "Desmoglein 1; concentration of 0.0005%, after 24 hours, average of three samples, p<0.05", "value": 95, "unit": "%"},
      {"measurement": "increase in collagen synthesis compared to control", "setting": "procollagen 1", "value": 75.4, "unit": "%"},
      {"measurement": "stimulation in mRNA levels for Dermatopontin", "setting": "Dermatopontin; 0.00005%", "value": 43, "unit": "%"},
      {"measurement": "stimulation in mRNA levels for Dermatopontin", "setting": "Dermatopontin; 0.0005%", "value": 62, "unit": "%"}
    ]}
  ]
}
